Data on 1 compound can be found in patent publication US20260325538A1, “THERAPY” (priority 2023, published 2026).

The subject of test [1] is various bacterial strains harbouring resistance enzymes. Kind of test: MIC determination, checkerboard assays (summary statements). The format is cell-based. Particulars: Examples 3-23. Here is the method:
Thus, in most of the experiments, a Fractional Inhibitory Concentration Index (FICI) could not be calculated, and the conclusion of synergy was made through visual reading of the bacterial growth in the wells in the combination experiment.
(§1) Antimicrobial susceptibility testing (AST) by broth microdilution (MIC determination) was performed according to The European Committee on Antimicrobial Susceptibility Testing (EUCAST) guidelines (see Reading guide for broth microdilution Version 5.0, 2024: https://www.eucast.org).
Sterile clear round bottom polystyrene (non-treated) 96-well microplates (Corning 3788) were used for making serial two-fold dilutions of the antibiotic and the serine sBLI in cation-adjusted Mueller Hinton II broth (caMHB; Thermo Scientific, T3462, containing 29.4 μM Zn^2+), across the columns of the microtiter plate (256-0.06 μg/mL; columns 1-12). The checkerboard plates were all made by keeping the sBLI at a fixed ratio relative to antibiotic (absolute concentrations of each, in μg/mL) to all wells containing sample in each plate. Additionally, a set of samples were included in each test plate, where the zinc chelator was added, at various fixed concentrations, of 16 μg/mL, 8 μg/mL and/or 4 μg/mL (as specified in each Example). All sample wells contained growth medium (caMHB), and inoculated bacteria at a final inoculum between 3-7×10^5 CFU/mL. […]

In test [2] the test system is Pseudomonas aeruginosa ST773 (NDM-1, OXA-395, PDC-16). Kind of test: Checkerboard MIC, fixed concentration of sBLI (Examples 18-23). The format is cell-based.
Text: The antibiotics and serine β-lactamase-inhibitors (sBLIs) were purchased from the following suppliers: Ceftazidime (CAZ): Sigma-Aldrich; Cefepime (FEP): Sigma-Aldrich; Cefpodoxime (CEFP): MedChemExpress; Sulbactam (SUL): Sigma-Aldrich Avibactam (AVI): Biosynth; Vaborbactam (VAB): ABCR; Tazobactam (TAZ): Sigma-Aldrich; Taniborbactam (TAN): Sigma-Aldrich.
In each of Examples 3-23, the compound of Example 26 of WO 2018/033719 was employed as the zinc chelator. The following abbreviations are used in these examples: sBLI means serine-β-lactamase inhibitor; CFU means colony-forming unit, which is a group of microbes that grows from a single cell on a petri plate; DMSO means dimethyl sulfoxide; MHB means Mueller-Hinton broth; caMHB means cation-adjusted Mueller-Hinton broth; MIC means minimum inhibitory concentration—the lower the MIC, the more efficient the combination against the respective bacterial strain.
General Protocol 2 Used in Examples 11-23 Employing a Fixed Concentration of sBLI within Each Experiment:
as §1
Sterile clear round bottom polystyrene (non-treated) 96-well microplates (Corning 3788) were used for making serial two-fold dilutions of the antibiotic in cation-adjusted Mueller Hinton II broth (caMHB; Thermo Scientific, T3462, containing 29.4 μM Zn^2+ or MILLIPORE, 90922-500G, containing 5.6 μM Zn^2+), across the columns of the microtiter plate (128-0.06 μg/mL; columns 1-12).
The checkerboard plates were all modified by adding a serine β-lactamase inhibitor (sBLI) at a fixed concentration of 16 μg/mL. Additionally, the zinc chelator was added at various fixed concentrations. Samples were mixed so that all plates contained a control containing antibiotic alone (no sBLI, no zinc chelator), a sample containing antibiotic and sBLI (double combination; no zinc chelator), and a sample containing antibiotic, sBLI and zinc chelator (triple combination). All test wells used in each plate contained growth medium (caMHB), and inoculated bacteria at a final inoculum between 3-7×10^5 CFU/mL. […] Synergy for the triple combination (antibiotic, sBLI, and zinc chelator) was defined as when the MIC in any of the rows containing the zinc chelator in combination with antibiotic and sBLI (triple combination), was lower than for antibiotic alone and lower than for the antibiotic and sBLI double combination.
An X in rows 1-4 in the table indicates growth of the bacterial inoculum, while a blank cell indicates no growth. Concentrations (μg/mL) of CAZ are given in row 0. AVI and the zinc chelator were added in fixed concentrations (AVI at 16 μg/mL in rows 2-4, zinc chelator at 16 μg/mL in row 3 and at 8 μg/mL in row 4). As a control, the effect of CAZ alone was tested (row 1). All wells contained bacterial growth medium (caMHB, 29.4 μM Zn^2+) and were inoculated with the test bacterium. The grey cells indicate the CAZ MIC.
An X in rows 1-4 in the table indicates growth of the bacterial inoculum, while a blank cell indicates no growth. Concentrations (μg/mL) of FEP are given in row 0. SUL and the zinc chelator were added in fixed concentrations (SUL at 16 μg/mL in rows 2-4, zinc chelator at 16 μg/mL in row 3 and at 8 μg/mL in row 4). As a control, the effect of FEP alone was tested (row 1). All wells contained bacterial growth medium (caMHB, 29.4 μM Zn^2+) and were inoculated with the test bacterium. The grey cells indicate the FEP MIC.
An X in rows 1-5 in the table indicates growth of the bacterial inoculum, while a blank cell indicates no growth. Concentrations (μg/mL) of CAZ are given in row 0. AVI and the zinc chelator were added in fixed concentrations (AVI at 16 μg/mL in rows 2-5, zinc chelator at 16 μg/mL in row 3, at 8 μg/mL in row 4, and at 4 μg/mL in row 5). […]

The test system of test [3] is bacteria which rely on SBLs. Particulars: in combination with meropenem; cited from earlier work.

For `CN(C[C@H](O)[C@@H](O)[C@H](O)[C@H](O)CO)C(=O)c1ccc(CN(Cc2ccccn2)Cc2ccccn2)nc1` [zinc chelator], the intrinsic antibiotic effect result in test [1] is “neither the zinc chelator nor the sBLI have intrinsic antibiotic effect”. Besides, the “synergy with the zinc chelator” value is listed as “Synergy” in test [2] (zinc chelator 4 μg/mL, with FEP and AVI 16 μg/mL, caMHB 5.6 μM Zn2+); “Synergy” in test [2] (zinc chelator 4 μg/mL, with FEP and SUL 16 μg/mL, caMHB 5.6 μM Zn2+); “Synergy” in test [2] (zinc chelator 8 μg/mL, with CAZ and AVI 16 μg/mL, caMHB 5.6 μM Zn2+); “Synergy” in test [2] (zinc chelator 8 μg/mL, with CAZ and AVI 16 μg/mL, caMHB 29.4 μM Zn2+); “Synergy” in test [2] (zinc chelator 8 μg/mL, with FEP and AVI 16 μg/mL, caMHB 5.6 μM Zn2+); “Synergy” in test [2] (zinc chelator 8 μg/mL, with FEP and SUL 16 μg/mL, caMHB 5.6 μM Zn2+). The “synergy with the zinc chelator” value is recorded as “Synergy” in test [2] (zinc chelator 8 μg/mL, with FEP and TAZ 16 μg/mL, caMHB 5.6 μM Zn2+); “Synergy” in test [2] (zinc chelator 16 μg/mL, with CAZ and AVI 16 μg/mL, caMHB 5.6 μM Zn2+); “Synergy” in test [2] (zinc chelator 16 μg/mL, with CAZ and AVI 16 μg/mL, caMHB 29.4 μM Zn2+); “Synergy” in test [2] (zinc chelator 16 μg/mL, with FEP and AVI 16 μg/mL, caMHB 5.6 μM Zn2+); “Synergy” in test [2] (zinc chelator 16 μg/mL, with FEP and SUL 16 μg/mL, caMHB 5.6 μM Zn2+); “Synergy” in test [2] (zinc chelator 16 μg/mL, with FEP and SUL 16 μg/mL, caMHB 29.4 μM Zn2+). For the same compound, the “synergy with the zinc chelator” value in test [2] (zinc chelator 16 μg/mL, with FEP and TAZ 16 μg/mL, caMHB 5.6 μM Zn2+) is reported as “Synergy”. Besides, in test [3], the “effect of combination with meropenem” value is recorded as “no effect”.
